Legend:
Format in all cases: in vivo
[1] = test system: haematopoietic stem cells (HSCs) and progenitor cells (CFU-GEMM); experiment: mobilisation of haematopoietic progenitor cells in mice (FIG. 1); settings: assessed 1 hour later, vs vehicle
Protocol: FIG. 1 is a graph showing the degree of mobilisation of haematopoietic stem cells (HSCs) and progenitor cells (CFU-GEMM) in mice following injection of vehicle, AMD3100 (5 mg/kg) and 6-{4-[1-(Propan-2-yl)piperidin-4-yl]-1,4-diazepan-1-yl}-N-(pyridin-4-yl)pyridine-2-carboxamide (30 mg/kg).
In the experiment represented by FIG. 1, groups of 5 mice were injected with vehicle, AMD3100 (5 mg/kg) or injected sub cutaneously with 6-{4-[1-(Propan-2-yl)piperidin-4-yl]-1,4-diazepan-1-yl}-N-(pyridin-4-yl)pyridine-2-carboxamide (30 mg/kg) and the mobilisation of haematopoietic progenitor cells assessed 1 hour later. The data are expressed for the multipotential GEMM cells as colony forming units per ml of peripheral blood.

[2] = test system: human glioblastoma cell line (T98G); experiment: T98G subcutaneous xenograft growth in nude mice (FIG. 2, 3)
Protocol: The solid line represents the control (i.e. untreated). The data in FIG. 2 are presented as % of the tumours progressing in groups of 8-10 mice, where progression is defined as a 20% increase in tumour volume. Tumour volume was determined by measuring the width and depth of the tumour with calipers, and then calculating the volume. […] After 15 days all of the control mice had progressed, whereas none of the mice treated with 6-{4-[1-(Propan-2-yl)piperidin-4-yl]-1,4-diazepan-1-yl}-N-(pyridin-4-yl)pyridine-2-carboxamide had done so. Inhibition of growth of human glioblastoma cell line (T98G) in nude mice is expected to be predictive of a beneficial therapeutic outcome in human cancer patients, including patients suffering from glioblastoma and astrocytoma.
After the subcutaneous tumours had grown to at least 120 mm^3 the mice were randomised into groups and treated with temozolomide (16 mg/kg po daily for 5 days) and 6-{4-[1-(Propan-2-yl)piperidin-4-yl]-1,4-diazepan-1-yl}-N-(pyridin-4-yl)pyridine-2-carboxamide (50 mg/kg, once per day by oral gavage, for 5 days every week, dotted line).
The data are presented in FIG. 3 as % of the tumours progressing in groups of 8-10 mice, where progression is defined as a 20% increase in tumour volume.

[3] = test system: human glioblastoma cell line (U87MG); experiment: orthotopic (intracranial) U87MG tumours in nude mice: survival and time to progression by luminescence (FIG. 4-10)
Protocol: The experiments represented by FIGS. 4, 5, and 6 had the same control (i.e. vehicle only), and therefore the same control data. For improved clarity, the line representing the control data has been removed from FIGS. 5 and 6, but retained in FIG. 4.
Nude mice were immobilized on a stereotaxic apparatus and anaesthetized. The operative field was prepared with betadine. A small hole was made at 1.0 mm anterior and 2 mm lateral to the exposed bregma. A sterile 5 μL Hamilton syringe with a 26 gauge needle was inserted at a depth of 3.0 mm from the skull surface and withdrawn by 0.5 mm to inject 3×10^3 U87MG cells in a volume of 3 μL. The injection rate was set up to 1 μL/min. After the implantation of the tumour cells, the needle was left in place for 5 min to prevent reflux. The needle was then completely withdrawn from the brain over the course of […] (1.0 mm/min), and the skin was sutured. Just before treatment initiation (5 days after injection), animals were randomized to treatment groups of 10 mice each. A small amount of cells was chosen (3×10^3) to simulate a chemo-radiotherapic treatment made after surgery in which a low number of tumour cells remain in the operatory bed, re-grow and give arise to a recurrence. Treatments were started 5 days after cell injection when no luciferase activity was detectable intracranially, and continued for 35 days. Time to progression (i.e. detection of luminescence) was assessed, and the mice followed for up to 180 days. […] The y axis parameter ‘survival’ is the percentage of mice not yet euthanized. The y axis parameter ‘probability of detection’ is the percentage of mice having a tumour that has progressed to the stage where luminescence is detected.
The following dosage administrations were used: 6-{4-[1-(Propan-2-yl)piperidin-4-yl]-1,4-diazepan-1-yl}-N-(pyridin-4-yl)pyridine-2-carboxamide was dosed at 50 mg/kg po once daily. Bevacizumab was dosed at 4 mg/kg iv every 4 days. Temozolomide was dosed at 32 mg/kg po daily. Sunitinib was dosed at 40 mg/kg po daily. Radiotherapy consisted of 3×2Gy daily.
For this experiment, 5×10^3 U87MG cells were injected using the technique described above. Following injection of the U87MG cells, tumours were detectable in the mice, which were treated for 28 days.

c1cc(CN2CCCNCCNCCCNCC2)ccc1CN1CCCNCCNCCCNCC1 [AMD3100, reference compound]
mobilisation of HSCs from the mouse bone marrow (CFU-GEMM, colony forming units per ml of peripheral blood) ([1]; 5 mg/kg, P<0.05): significantly greater than that caused by vehicle

CC(C)N1CCC(N2CCCN(c3cccc(C(=O)Nc4ccncc4)n3)CC2)CC1 [6-{4-[1-(Propan-2-yl)piperidin-4-yl]-1,4-diazepan-1-yl}-N-(pyridin-4-yl)pyridine-2-carboxamide]
mice with tumour progression (20% increase in tumour volume) after 15 days ([2]; 50 mg/kg once per day by oral gavage, 5 days every week, all control mice had progressed): none | growth of T98G subcutaneous xenografts compared to control ([2]; alone, 50 mg/kg once per day by oral gavage, 5 days every week): inhibits the growth | anti-tumour efficacy on T98G subcutaneous xenografts (% of tumours progressing) ([2]; combination: 50 mg/kg po once per day 5 days every week + temozolomide 16 mg/kg po daily for 5 days): synergistic | mobilisation of HSCs from the mouse bone marrow (CFU-GEMM, colony forming units per ml of peripheral blood) ([1]; 30 mg/kg sub cutaneously): does not result in significant mobilisation | delay of tumour growth (probability of detection), HR ([3]; alone, 50 mg/kg po once daily, p<0.001, FIG. 9A/9B): 3.7 | delay of growth of the tumour to a size detectable through luminescence, H.R. ([3]; alone, 50 mg/kg po once daily, to vehicle, FIG. 8A/8B): 3.5 | survival, HR ([3]; combination with Bevacizumab 4 mg/kg iv every 4 days, 50 mg/kg po once daily, vs vehicle, p=0.002, FIG. 4): 3.4 | time taken for progression of tumours (detection by luminescence), HR ([3]; combination with Bevacizumab 4 mg/kg iv every 4 days, vs vehicle, p=0.0001, FIG. 8A): 9.7 | survival, HR ([3]; combination with Sunitinib 40 mg/kg po daily, 50 mg/kg po once daily, vs vehicle, p=0.2, FIG. 7): 1.6 | time taken for progression of tumours (detection by luminescence), HR ([3]; combination with Sunitinib 40 mg/kg po daily, vs vehicle, p=0.0001, FIG. 8B): 5.3 | survival, HR ([3]; combination with Temozolomide 32 mg/kg po daily, 50 mg/kg po once daily, vs Temozolomide alone, p=0.02, FIG. 5): 2.8 | survival, HR ([3]; combination with irradiation and temozolomide, 5x10^3 U87MG cells, tumours detectable, treated for 28 days, p=0.025, FIG. 10): 2.3 | survival, HR ([3]; combination with radiotherapy 3x2Gy daily, 50 mg/kg po once daily, vs radiotherapy alone, p=0.0002, FIG. 6): 4.0 | delay of tumour growth (probability of detection), HR ([3]; irradiation (3x2Gy daily) alone vs combination with irradiation, p=0.0001, FIG. 9A): 4.6 | delay of tumour growth (probability of detection), HR ([3]; temozolomide (32 mg/kg po daily) alone vs combination with temozolomide, p=0.01, FIG. 9B): 2.9
